In PMC6539310, “Investigation on the Enzymatic Profile of Mulberry Alkaloids by Enzymatic Study and Molecular Docking” (Molecules, 2019):
Where two headings read alike, the source gives them in different places.

Experiments:
[1] = target: T1, sucrase (Rattus norvegicus, UniProt P23739); assay: α-glucosidase inhibition assay, sucrase (sucrose substrate, glucose oxidase readout); assay type: biochemical, Wistar rats; details: for Sucrase Inhibition, Inhibition Ratio (%): at 4 × 10^−5 M
T1 construct: Sucrase and maltase were obtained from the intestinal brush border of Wistar rats; from tissue; host or cells: intestinal brush border of Wistar rats
Protocol: (§1) Sucrase and maltase were obtained from the intestinal brush border of Wistar rats. […] Each stock solution was prepared with distilled water. All other solvents and chemicals were of analytical purity.
The modified inhibitory screening system was used to determine inhibitory activity on α-glucosidase. Selected starch, sucrose, and maltose were used as α-glucosidase substrates instead of p-nitrophenyl glucopyranoside. Maltase and sucrase were pre-incubated with different concentrations of compound (0.004–400 μmol/L) at 37 °C for 8 min, and the substrate was then added into initiate the reaction. After incubation at 37 °C for 40 min, 150 μL of glucose oxidase solution was added to each mixture and incubated at 37 °C for 40 min. […] Inhibitory percentage values were calculated using the formula: %Inhibition = (B − C)/B × 100, where B is the formation of glucose under the enzyme without compound and C is the formation of glucose with compound.

[2] = target: α-amylase; assay: α-amylase inhibition assay (starch-iodine); assay type: biochemical; details: for α-Amylase Inhibition, Inhibition Ratio (%): at 1 × 10^−5 M
Protocol: as §1
α-amylase was pre-incubated with different compound concentrations (0.016–100 μmol/L) at 37 °C for 15 min, and the reaction was initiated with the addition of 100 µL of 0.04% starch solution. After incubation at 37 °C for 10 min, 0.1 M iodine reagent was added. Absorption at 660 nm was measured to determine the remaining amount of starch in the reaction and thus calculate the inhibitory effect in the different samples.

[3] = target: maltase (Rattus norvegicus, UniProt D3ZTX4); assay: Enzyme-kinetic analysis on maltase (Lineweaver–Burk plots); assay type: biochemical, Wistar rats; details: maltose substrate
Protocol: as §1
(§2) Lineweaver–Burk double reciprocal plots (LB plots) were then obtained to calculate the kinetic constants and evaluate inhibitory type, the equation is as follows: 1/V = (Km + [S])/(Vmax[S]) = (Km/Vmax) * (1/[S]) + (1/Vmax),
(§3) In this equation, [S] denotes the concentration of substrate, V represents the enzyme reaction velocity and Km is the Michaelis–Menten constant.

[4] = target: T1, sucrase; assay: Enzyme-kinetic analysis on sucrase (Lineweaver–Burk plots); assay type: biochemical, Wistar rats; details: for Ki: from LB plots; for Inhibition Type: sucrose substrate
Protocol: as §1, §2, §3

[5] = read-out: Sucrase Inhibition IC50

T1 sequence (P23739 whole entry): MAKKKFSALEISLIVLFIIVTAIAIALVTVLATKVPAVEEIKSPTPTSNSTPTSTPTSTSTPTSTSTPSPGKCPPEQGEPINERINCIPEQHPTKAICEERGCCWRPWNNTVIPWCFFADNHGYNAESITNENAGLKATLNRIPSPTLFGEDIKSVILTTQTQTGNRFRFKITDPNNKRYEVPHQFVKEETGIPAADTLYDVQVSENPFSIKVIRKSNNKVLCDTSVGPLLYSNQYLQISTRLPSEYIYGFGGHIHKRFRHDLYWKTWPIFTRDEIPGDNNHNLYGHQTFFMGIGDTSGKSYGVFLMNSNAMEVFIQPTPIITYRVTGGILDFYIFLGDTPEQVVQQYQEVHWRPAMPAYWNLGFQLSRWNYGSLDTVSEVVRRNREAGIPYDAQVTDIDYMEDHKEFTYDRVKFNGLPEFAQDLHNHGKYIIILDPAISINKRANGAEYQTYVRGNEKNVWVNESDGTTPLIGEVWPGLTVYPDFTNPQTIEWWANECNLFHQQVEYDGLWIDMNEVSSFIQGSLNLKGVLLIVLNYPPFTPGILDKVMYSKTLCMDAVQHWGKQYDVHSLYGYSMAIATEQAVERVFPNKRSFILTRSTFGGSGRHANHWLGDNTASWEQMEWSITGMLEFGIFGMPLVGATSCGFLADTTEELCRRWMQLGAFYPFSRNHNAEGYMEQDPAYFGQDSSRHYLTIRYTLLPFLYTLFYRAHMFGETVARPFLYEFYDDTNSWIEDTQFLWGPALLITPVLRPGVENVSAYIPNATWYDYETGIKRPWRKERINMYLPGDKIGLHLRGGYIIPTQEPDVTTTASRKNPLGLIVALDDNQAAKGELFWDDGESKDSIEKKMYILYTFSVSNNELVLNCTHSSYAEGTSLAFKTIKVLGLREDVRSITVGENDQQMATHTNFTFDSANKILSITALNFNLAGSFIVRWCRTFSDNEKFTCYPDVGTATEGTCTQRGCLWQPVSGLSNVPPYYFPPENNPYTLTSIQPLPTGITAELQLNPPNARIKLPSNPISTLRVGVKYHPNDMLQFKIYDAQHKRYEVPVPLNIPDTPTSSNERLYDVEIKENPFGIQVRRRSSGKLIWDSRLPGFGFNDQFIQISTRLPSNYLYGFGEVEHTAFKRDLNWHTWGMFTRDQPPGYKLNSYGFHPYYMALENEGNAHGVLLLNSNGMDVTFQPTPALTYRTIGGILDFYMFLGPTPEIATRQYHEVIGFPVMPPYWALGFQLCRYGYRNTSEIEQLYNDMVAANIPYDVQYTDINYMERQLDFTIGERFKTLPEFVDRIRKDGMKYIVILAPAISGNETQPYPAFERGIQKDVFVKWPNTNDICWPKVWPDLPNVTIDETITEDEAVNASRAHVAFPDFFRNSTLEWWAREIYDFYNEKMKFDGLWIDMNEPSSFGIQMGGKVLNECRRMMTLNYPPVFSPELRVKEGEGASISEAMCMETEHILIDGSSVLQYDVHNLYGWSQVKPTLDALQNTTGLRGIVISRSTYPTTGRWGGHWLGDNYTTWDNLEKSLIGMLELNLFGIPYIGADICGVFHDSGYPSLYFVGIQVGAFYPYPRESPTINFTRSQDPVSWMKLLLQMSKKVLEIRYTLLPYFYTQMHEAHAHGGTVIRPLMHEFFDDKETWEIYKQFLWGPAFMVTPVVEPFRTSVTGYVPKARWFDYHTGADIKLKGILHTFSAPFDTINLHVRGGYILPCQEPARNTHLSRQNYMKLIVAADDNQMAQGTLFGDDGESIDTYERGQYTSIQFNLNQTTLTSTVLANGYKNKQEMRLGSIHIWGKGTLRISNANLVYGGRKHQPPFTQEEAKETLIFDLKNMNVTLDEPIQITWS

SMILES | Selectivity sucrase over amylase (IC50 amylase/IC50 disaccharidases) ([1]; IC50 amylase / IC50 sucrase) [times] | Sucrase Inhibition, Inhibition Ratio (%) [1] [%] | IC50 ([1]; converted from μmol/L by mol wt, read-out: Sucrase IC50 after conversion according to the molecular weight (converted)) [µM] | IC50 [1, 5] [µM] | IC50 [2] [µM] | Inhibitory activity on α-amylase (in words) [2] | α-Amylase Inhibition, Inhibition Ratio (%) [2] [%] | Inhibition Type [3] | Ki [4] [µM] | Inhibition Type [4]
OC[C@H]1NC[C@H](O)[C@@H](O)[C@@H]1O [1-DNJ, 1-deoxynojirimycin] | 1282 | 100 | 0.0613 | 0.078 | > 100 | no obvious inhibitory activity | 0 | Competitive inhibition | 0.0137 | Competitive inhibition
C[C@H]1O[C@H](O[C@H]2[C@H](O)[C@@H](O)[C@@H](O[C@H]3[C@H](O)[C@@H](O)C(O)O[C@@H]3CO)O[C@@H]2CO)[C@H](O)[C@@H](O)[C@@H]1N[C@H]1C=C(CO)[C@@H](O)[C@H](O)[C@H]1O (stereo partly drawn) [Acarbose, acarbose, reference compound] | – | – | – | – | – | strongly inhibited | – | Competitive inhibition | – | Competitive inhibition
OC[C@H]1NC[C@@H](O)[C@@H]1O [DAB, 1,4-dideoxy-1,4-imino-D-arabinitol] | – | – | – | – | > 100 | no obvious inhibitory activity | – | Competitive inhibition | – | –
OC[C@H]1NCC[C@@H](O)[C@@H]1O [FA, fagomine] | – | 84.6 | – | 13.5 | > 100 | no obvious inhibitory activity | 0 | Competitive inhibition | 3.97 | Competitive inhibition
